The target of this experiment is PI3Kβ (Homo sapiens (Human), UniProt P42338). Briefly: TR-FRET enzymatic activity assay, PI3Kβ. It is filed as biochemical. The note with it: 2× Km ATP, 2 μM PIP2, 30 minutes at 25° C., read-out: IC50-PIP-Beta. As for the experimental part: The compounds of formula (I) were characterized for their enzymatic activity against the PI3K isoforms. The activities were measured using a time-resolved fluorescence resonance energy transfer (TR-FRET) assay. TR-FRET monitored the formation of 3,4,5-inositol triphosphate molecule that competed with fluorescently labeled PIPS for binding to the GRP-1 pleckstrin homology domain protein.
PI3Kβ, sequence (P42338 whole entry, the tested form may be a part, canonical isoform): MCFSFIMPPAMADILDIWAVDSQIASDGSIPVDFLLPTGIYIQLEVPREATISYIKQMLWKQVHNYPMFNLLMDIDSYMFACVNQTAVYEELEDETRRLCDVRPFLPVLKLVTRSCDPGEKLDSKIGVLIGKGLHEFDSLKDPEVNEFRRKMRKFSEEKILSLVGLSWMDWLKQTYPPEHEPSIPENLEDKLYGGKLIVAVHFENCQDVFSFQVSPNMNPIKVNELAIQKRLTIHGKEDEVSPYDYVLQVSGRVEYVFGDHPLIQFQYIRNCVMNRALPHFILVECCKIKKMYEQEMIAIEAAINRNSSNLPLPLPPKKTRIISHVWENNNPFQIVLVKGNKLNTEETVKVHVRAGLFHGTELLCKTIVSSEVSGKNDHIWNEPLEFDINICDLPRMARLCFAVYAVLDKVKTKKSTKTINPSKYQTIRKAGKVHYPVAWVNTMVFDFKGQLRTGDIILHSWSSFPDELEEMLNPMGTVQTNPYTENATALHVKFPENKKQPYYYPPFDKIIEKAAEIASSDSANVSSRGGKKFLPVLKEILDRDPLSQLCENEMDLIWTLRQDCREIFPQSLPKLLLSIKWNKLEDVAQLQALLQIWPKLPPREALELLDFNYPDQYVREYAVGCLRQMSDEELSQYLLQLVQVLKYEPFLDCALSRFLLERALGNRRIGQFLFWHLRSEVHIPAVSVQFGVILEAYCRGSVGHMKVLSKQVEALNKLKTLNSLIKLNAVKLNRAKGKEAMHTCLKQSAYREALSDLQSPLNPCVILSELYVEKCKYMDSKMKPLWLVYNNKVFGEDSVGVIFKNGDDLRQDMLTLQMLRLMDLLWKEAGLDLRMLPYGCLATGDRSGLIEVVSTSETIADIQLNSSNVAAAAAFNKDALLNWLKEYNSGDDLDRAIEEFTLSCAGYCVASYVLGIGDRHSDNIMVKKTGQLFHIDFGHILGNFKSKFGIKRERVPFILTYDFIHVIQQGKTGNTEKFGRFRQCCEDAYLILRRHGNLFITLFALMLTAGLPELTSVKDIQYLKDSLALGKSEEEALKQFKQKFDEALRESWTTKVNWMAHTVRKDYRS
PI3Kβ, sequence (P27986 whole entry partner, the tested form may be a part, canonical isoform): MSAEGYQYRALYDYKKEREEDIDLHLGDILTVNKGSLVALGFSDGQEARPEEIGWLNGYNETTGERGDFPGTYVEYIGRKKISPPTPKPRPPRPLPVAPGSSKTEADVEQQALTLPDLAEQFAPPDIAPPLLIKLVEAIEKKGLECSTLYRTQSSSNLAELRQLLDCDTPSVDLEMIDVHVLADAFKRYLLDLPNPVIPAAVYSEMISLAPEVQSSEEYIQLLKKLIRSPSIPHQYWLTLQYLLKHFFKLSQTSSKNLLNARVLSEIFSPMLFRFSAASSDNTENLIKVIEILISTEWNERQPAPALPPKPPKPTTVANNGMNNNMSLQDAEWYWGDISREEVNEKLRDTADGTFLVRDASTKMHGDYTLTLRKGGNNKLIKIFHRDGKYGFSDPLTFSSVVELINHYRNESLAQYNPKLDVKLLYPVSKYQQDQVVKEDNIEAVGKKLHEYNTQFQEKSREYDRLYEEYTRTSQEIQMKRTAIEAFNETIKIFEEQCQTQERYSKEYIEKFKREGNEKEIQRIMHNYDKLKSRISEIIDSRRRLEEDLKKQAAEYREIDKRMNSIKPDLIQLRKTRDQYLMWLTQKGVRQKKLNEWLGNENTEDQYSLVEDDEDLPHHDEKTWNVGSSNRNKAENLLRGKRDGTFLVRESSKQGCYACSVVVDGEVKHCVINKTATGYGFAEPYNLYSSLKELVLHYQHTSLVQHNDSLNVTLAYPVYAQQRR
Class I PI3K isoforms were expressed and purified as heterodimeric recombinant proteins. All assay reagents and buffers for the TR-FRET assay were purchased from Millipore. […] The compounds were added to the assay solution and incubated for 30 minutes at 25° C.
Background: Time-resolved FRET reads energy transfer from a long-lived donor to a nearby acceptor.
For `Cc1cc(-c2cc(-c3nnc[nH]3)c3nc(C)n(-c4ccnc5c(F)ccc(F)c45)c3c2)ccn1` [Example 45, 5,8-difluoro-4-[2-methyl-6-(2-methylpyridin-4-yl)-4-(4H-1,2,4-triazol-3-yl)benzimidazol-1-yl]quinoline], the half-maximal inhibitory concentration (IC50) (usually the point on the concentration scale where inhibition reaches its midpoint) stood at 8 nM. In the case of `Cc1nc2c(-c3nnc[nH]3)cc(-c3cc(N)nc(N)n3)cc2n1-c1ccnc2c(Cl)cccc12` [Example 57, 6-[3-(8-chloroquinolin-4-yl)-2-methyl-7-(4H-1,2,4-triazol-3-yl)benzimidazol-5-yl]pyrimidine-2,4-diamine], the IC50 amounted to 290 nM. Consider `Cc1cc(-n2c(C)nc3c(-c4nnc[nH]4)cc(-c4ccncc4)cc32)c2ccccc2n1` [Example 34, 2-methyl-4-[2-methyl-6-pyridin-4-yl-4-(4H-1,2,4-triazol-3-yl)benzimidazol-1-yl]quinoline], for which the IC50 was 26 nM. Then `Cc1nnc(-c2cc(-c3ccnc(N)c3)cc3c2nc(C)n3-c2ccnc3c(Cl)ccc(F)c23)[nH]1` [Example 50, 4-[3-(8-chloro-5-fluoroquinolin-4-yl)-2-methyl-7-(5-methyl-4H-1,2,4-triazol-3-yl)benzimidazol-5-yl]pyridin-2-amine], with 17 nM; and `Cc1nc2c(-c3nnc[nH]3)cc(-c3ccnc(C#N)c3)cc2n1-c1ccnc2c(F)ccc(F)c12` (single isomer, unassigned) [Example 113, 4-[3-(5,8-difluoroquinolin-4-yl)-2-methyl-7-(4H-1,2,4-triazol-3-yl)benzimidazol-5-yl]pyridine-2-carbonitrile], with 2 nM; and `Cc1nc2c(-c3nnc[nH]3)cc(-c3ccnc(N)c3F)cc2n1-c1ccnc2c(F)ccc(F)c12` (single isomer, unassigned) [Example 105, 4-[3-(5,8-difluoroquinolin-4-yl)-2-methyl-7-(4H-1,2,4-triazol-3-yl)benzimidazol-5-yl]-3-fluoropyridin-2-amine], with 1400 nM. As to `Nc1cc(-c2cc(-c3nnc[nH]3)c3nc(CC4CC4)n(-c4ccnc5c(F)ccc(F)c45)c3c2)ccn1` [Example 71, 4-[2-(cyclopropylmethyl)-3-(5,8-difluoroquinolin-4-yl)-7-(4H-1,2,4-triazol-3-yl)benzimidazol-5-yl]pyridin-2-amine], the 50% inhibitory concentration (IC50) stood at 13 nM.

For `Cc1c(-c2cc(-c3nnc[nH]3)c3nc(C)n(-c4ccnc5c(F)ccc(F)c45)c3c2)ccnc1N` [Example 101, 4-[3-(5,8-difluoroquinolin-4-yl)-2-methyl-7-(4H-1,2,4-triazol-3-yl)benzimidazol-5-yl]-3-methylpyridin-2-amine], the half-inhibitory concentration (IC50) came out at 2800 nM. `Cc1nc2c(-c3nnc[nH]3)cc(-c3ccnc(N)c3)cc2n1-c1ccnc2c(F)ccc(F)c12` (single isomer, unassigned) [Example 103, 4-(1-(5,8-difluoroquinolin-4-yl)-2-methyl-4-(4H-1,2,4-triazol-3-yl)-1H-benzo[d]imidazol-6-yl)pyridin-2-amine]: the IC50 came out at 210 nM.

Turning to `Cc1nc2c(-c3nnc[nH]3)cc(-c3cc(N)ncc3F)cc2n1-c1ccnc2c(F)ccc(F)c12` [Example 76, 4-[3-(5,8-difluoroquinolin-4-yl)-2-methyl-7-(4H-1,2,4-triazol-3-yl)benzimidazol-5-yl]-5-fluoropyridin-2-amine], the IC50 is 50 nM. As for `Cc1nc2c(-c3nnc[nH]3)cc(-c3ccnc(N)c3F)cc2n1-c1ccnc2c(Cl)ccc(Cl)c12` (single isomer, unassigned) [Example 119, 4-(1-(5,8-dichloroquinolin-4-yl)-2-methyl-4-(4H-1,2,4-triazol-3-yl)-1H-benzo[d]imidazol-6-yl)-3-fluoropyridin-2-amine], the IC50 was found to be 87 nM. Then `Cc1nc2c(C(=O)O)cc(-c3ccnc(N)n3)cc2n1-c1ccnc2c(Cl)cccc12` [Example 2], with 13 nM; and `Nc1nccc(-c2cc(-c3nnc[nH]3)c3nc(C4CC4)n(-c4ccnc5c(F)cccc45)c3c2)c1F` [Example 88, 4-[2-cyclopropyl-3-(8-fluoroquinolin-4-yl)-7-(4H-1,2,4-triazol-3-yl)benzimidazol-5-yl]-3-fluoropyridin-2-amine], with 110 nM. With `Cc1c(-c2cc(-c3nnc[nH]3)c3nc(C)n(-c4ccnc5c(F)ccc(F)c45)c3c2)ccnc1F` [Example 46, 5,8-difluoro-4-[6-(2-fluoro-3-methylpyridin-4-yl)-2-methyl-4-(4H-1,2,4-triazol-3-yl)benzimidazol-1-yl]quinoline], the half-maximal inhibitory concentration (IC50) is 1100 nM. For `Cc1nc2c(-c3nnc[nH]3)cc(-c3ccnc(C#N)c3)cc2n1-c1ccnc2cccc(Cl)c12` (single isomer, unassigned) [Example 126, 4-(1-(5-chloroquinolin-4-yl)-2-methyl-4-(4H-1,2,4-triazol-3-yl)-1H-benzo[d]imidazol-6-yl)picolinonitrile], the IC50 turned out to be 780 nM.

Regarding `NC(=O)c1cc(-c2ccnc(N)c2F)cc2c1nc(C1CC1)n2-c1ccnc2c(Cl)ccc(F)c12` [Example 25], the half-maximal inhibitory concentration (IC50) came out at 6 nM. Consider `Cc1nc2c(C(N)=O)cc(-c3ccnc(C#N)c3)cc2n1-c1ccnc2c(F)ccc(F)c12` [Example 16, 6-(2-cyanopyridin-4-yl)-1-(5,8-difluoroquinolin-4-yl)-2-methylbenzimidazole-4-carboxamide], for which the IC50 came out at 51 nM. On to `Cc1nc2c(-c3nnc[nH]3)cc(-c3ccnc(C#N)c3)cc2n1-c1ccnc2cccc(Cl)c12` (single isomer, unassigned) [Example 125, 4-(1-(5-chloroquinolin-4-yl)-2-methyl-4-(4H-1,2,4-triazol-3-yl)-1H-benzo[d]imidazol-6-yl)picolinonitrile], for which the half-maximal inhibitory concentration (IC50) came out at 110 nM. With `Cc1nc2c(-c3nnc[nH]3)cc(-c3ccnc(C#N)c3)cc2n1-c1ccnc2cccc(F)c12` (single isomer, unassigned) [Example 131, 4-(1-(5-fluoroquinolin-4-yl)-2-methyl-4-(4H-1,2,4-triazol-3-yl)-1H-benzo[d]imidazol-6-yl)picolinonitrile], the IC50 was 2 nM. Turning to `Cc1cc(-c2cc(-c3nnc[nH]3)c3nc(C)n(-c4ccnc5c(F)ccc(F)c45)c3c2)ncn1` [Example 155, 5,8-difluoro-4-(2-methyl-6-(6-methylpyrimidin-4-yl)-4-(4H-1,2,4-triazol-3-yl)-1H-benzo[d]imidazol-1-yl)quinoline], the half-inhibitory concentration (IC50) amounted to 62 nM.

Consider `Cc1nc2c(-c3nnc[nH]3)cc(-c3ccnc(C#N)c3)cc2n1-c1ccnc2c(Cl)ccc(F)c12` [Example 153, 4-(1-(8-chloro-5-fluoroquinolin-4-yl)-2-methyl-4-(4H-1,2,4-triazol-3-yl)-1H-benzo[d]imidazol-6-yl)picolinonitrile], for which the IC50 was determined as 7 nM.

With `Nc1cc(-c2cc(-c3nnc[nH]3)c3nc(C4CC4)n(-c4ccnc5c(Cl)ccc(F)c45)c3c2)ccn1` [Example 62, 4-[3-(8-chloro-5-fluoroquinolin-4-yl)-2-cyclopropyl-7-(4H-1,2,4-triazol-3-yl)benzimidazol-5-yl]pyridin-2-amine], the half-maximal inhibitory concentration (IC50) turned out to be 8 nM.

As to `Cc1nc2c(-c3nnc[nH]3)cc(-c3ccnc(N)c3F)cc2n1-c1ccnc2cc(F)cc(F)c12` (single isomer, unassigned) [Example 118], the IC50 is 35 nM.

Turning to `Cc1nc2c(C(N)=O)cc(-c3ccnc(N)c3)cc2n1-c1ccnc2c(Cl)ccc(F)c12` [Example 18, 6-(2-aminopyridin-4-yl)-1-(8-chloro-5-fluoroquinolin-4-yl)-2-methylbenzimidazole-4-carboxamide], the IC50 was determined as 23 nM. Consider `Cc1nc2c(C(=O)O)cc(-c3ccnc(N)c3F)cc2n1-c1ccnc2c(F)ccc(F)c12` [Example 4, 6-(2-amino-3-fluoropyridin-4-yl)-1-(5,8-difluoroquinolin-4-yl)-2-methyl-1H-benzo[d]imidazole-4-carboxylic acid], for which the half-maximal inhibitory concentration (IC50) turned out to be 20 nM.

Turning to `NC(=O)c1cc(-c2ccncc2)cc2c1nc(C1COC1)n2-c1ccnc2c(Cl)cccc12` [Example 12, 1-(8-chloroquinolin-4-yl)-2-(oxetan-3-yl)-6-pyridin-4-ylbenzimidazole-4-carboxamide], the 50% inhibitory concentration (IC50) came to 340 nM. Next, `Clc1cccc2c(-n3c(C4COC4)nc4c(-c5nnc[nH]5)cc(-c5ccncc5)cc43)ccnc12` [Example 36, 8-chloro-4-[2-(oxetan-3-yl)-6-pyridin-4-yl-4-(4H-1,2,4-triazol-3-yl)benzimidazol-1-yl]quinoline]: 250 nM. With `Nc1nccc(-c2ccc3ncn(-c4cc(N5CCNCC5)nc5ccccc45)c3c2)c1F` [Example 163, 3-fluoro-4-(1-(2-(piperazin-1-yl)quinolin-4-yl)-1H-benzo[d]imidazol-6-yl)pyridin-2-amine], the IC50 was 120 nM.

Take `Cc1nnc(-c2cc(-c3ccnc(N)c3F)cc3c2nc(C)n3-c2ccnc3c(Cl)ccc(F)c23)[nH]1` (single isomer, unassigned) [Example 111, 4-[3-(8-chloro-5-fluoroquinolin-4-yl)-2-methyl-7-(5-methyl-4H-1,2,4-triazol-3-yl)benzimidazol-5-yl]-3-fluoropyridin-2-amine]: the half-inhibitory concentration (IC50) worked out at 2500 nM. As to `CNc1cc(-c2cc(-c3nnc[nH]3)c3nc(C)n(-c4ccnc5c(F)ccc(F)c45)c3c2)c(F)cn1` [Example 82, 4-[3-(5,8-difluoroquinolin-4-yl)-2-methyl-7-(4H-1,2,4-triazol-3-yl)benzimidazol-5-yl]-5-fluoro-N-methylpyridin-2-amine], the IC50 came out at 120 nM. Consider `Cc1nnc(-c2cc(-c3ccnc(N)c3F)cc3c2nc(C)n3-c2ccnc3c(Cl)ccc(F)c23)[nH]1` (single isomer, unassigned) [Example 112, 4-[3-(8-chloro-5-fluoroquinolin-4-yl)-2-methyl-7-(5-methyl-4H-1,2,4-triazol-3-yl)benzimidazol-5-yl]-3-fluoropyridin-2-amine], for which the concentration for half-maximal inhibition (IC50) is 5 nM.

(Values after patent US10227350B2 (Gilead Sciences, Inc., priority 2016, dated 2019).)
